Results taken from patent US6043265A, “Isoxazolyl endothelin antagonists” (Bristol-Myers Squibb Co., priority 1998, dated 2000).
Like-named read-outs stand apart in the source and are kept apart here.

Tests used:
[1] = Oral bioavailability in fasted male rats (intravenous and oral dosing); assay type: in vivo; settings: for bioavailability / AUC(0-inf): rat, plasma; for bioavailability: from dose-normalized AUC.infin. oral vs intravenous; for AUC(0-inf): fasted male rats (n=3), read-out: area under the curve AUC.infin.
Method: Fasted male rats (n=3) were given a single dose of the title compound either intravenously (10 μmol/kg as a 10 minute infusion) or orally by gavage (20 μmol/kg). The dosing vehicle was propylene glycol for the intravenous dose and PEG-400 for the oral dose. Following dosing, the average plasma concentration of the title compound was measured over time, and the area under the curve AUC.infin.

[2] = system: big ET-1 pressor response; assay: Pressor testing (i): inhibition of big ET-1 pressor response after intravenous dosing; assay type: in vivo; settings: Rattus norvegicus, 5 min, read-out: dose causing 50% inhibition of the big ET-1 pressor response (ED50), human big ET-1 1 nmol/kg i.v. before and 5 minutes after compound, conscious normotensive Sprague-Dawley rats
Method: (i) Intravenous injection of big ET-1 into conscious, normotensive rats produces a transient increase in mean arterial pressure which can be blunted by an ETA receptor antagonist.
A bolus injection of human big ET-1 (1 nmol/kg, intravenously; vehicle: 1% Tween 80 in 5% NaHCO3) was administered to Sprague-Dawley rats before and 5 minutes after intravenous injection of an amount of the title compound (0.01 μmol/kg (n=10), 0.03 μmol/kg (n=10), and 0.1 μmol/kg (n=3)). Peak pressor responses were compared to determine the amount of inhibition caused by the title compound.

[3] = system: big ET-1 pressor response; assay: Pressor testing (ii): inhibition of big ET-1 pressor response over time after oral dosing; assay type: in vivo, Sprague-Dawley rats; settings: 3 μmol/kg, human big ET-1 1 nmol/kg i.v., n=3
Source text: Peak pressor responses were compared to determine the amount of inhibition caused by the title compound at these time intervals.

in vitro = settings: rat, cecal contents, pH 7.4
Method: Rat cecal contents were quickly placed in cold, degassed potassium phosphate buffer (50 mM, pH 7.4, purged by nitrogen bubbling for at least 30 minutes). Each incubation contained ca. 0.1 g of cecal contents/ml. […] Samples were analyzed with HPLC-UV and LC-MS on a YMC-ODS AQ column (4.6×150 mm, 3μ) eluted with an ammonium acetate/acetonitrile gradient and detected at 270 nm.

[4] = Pre-systemic metabolic stability within the gastrointestinal tract, in vivo (bile duct cannulated rats); settings: rat, po, 29 mg/kg
Method: Bile duct cannulated rats were fasted overnight. The title compound was administered as a solution in 5% sodium bicarbonate (ca. 8 mg/ml, 29 mg/kg) by oral gavage. Gastrointestinal tract homogenate was made in 3 volumes of water and an equal volume of acetonitrile was added.

bioavailability ([1]; 20 umol/kg, fasted male rats) [%]	remaining at 1 h, 200 µM (in vitro) [%]	dose-normalized AUC.infin. values, intravenous versus oral ([1]; fasted male rats, 10 μmol/kg intravenous vs 20 μmol/kg oral)	AUC(0-inf) ([1]; 10 umol/kg, intravenous, 10 μmol/kg as a 10 minute infusion, propylene glycol vehicle) [µM·h]	AUC(0-inf) ([1]; 20 umol/kg, oral gavage, 20 μmol/kg, PEG-400 vehicle) [µM·h]	metabolites in the gastrointestinal tract [4]	remaining at 9 h [4] [%]	Compound	ED50 [2] [µmol/kg]	% Inhibition (big ET-1 pressor response) ([3]; 15 minutes after dosing) [%]	% Inhibition (big ET-1 pressor response) ([3]; 105 minutes after dosing) [%]	% Inhibition (big ET-1 pressor response) ([3]; 195 minutes after dosing) [%]
~78	–	–	–	–	–	–	Cc1onc(NS(=O)(=O)c2ccccc2-c2ccc(-c3ncco3)cc2CN2CCC(C)(C)C2=O)c1C [N-(4,5-dimethyl-3-isoxazolyl)-2'-[(3,3-dimethyl-2-oxo-1-pyrrolidinyl)methyl]-4'-(2-oxazolyl)[1,1'-biphenyl]-2-sulfonamide]	–	–	–	–
~100	100	not statistically different	31.3 ± 2.9	72.8 ± 17.3	metabolites were not observed	100	Cc1onc(NS(=O)(=O)c2ccccc2-c2ccc(-c3ncco3)cc2CN(C)C(=O)CC(C)(C)C)c1C [N-[[2'-[[(4,5-dimethyl-3-isoxazolyl)amino]sulfonyl]-4-(2-oxazolyl)[1,1'-biphenyl]-2-yl]methyl]-N,3,3-trimethylbutanamide]	0.03	57 ± 7	65 ± 13	74 ± 8
